{"source": "patent US20020051760A1", "about": "“Method for screening a substance having promoting activity on hair growth” (SUMITOMO ELECTRIC INDUSTRIES, Ltd., priority 2000, published 2002)", "key": {"[1]": {"test_system": "Hacl-1 in the hair follicles", "assay": "Induction of Hacl-1 expression and anagen in hair follicles of mouse back skin after subcutaneous injection", "assay_type": "in vivo", "conditions": "C57BL/6 mice in telogen, 0.8 mg/ml solution, 0.1 ml subcutaneously 5 times at intervals of 24 hours", "method": "(§1) A C57BL mouse (14 weeks old) was shaved on the back with clippers to confirm that the mouse had both skin areas in anagen and telogen as to the hair cycle based on colors of the skin. Each 200 mg of the skin areas in anagen and telogen was collected from the mouse and homogenized on ice for 2 minutes, and then suspended in a buffer (PBS). The supernatant was collected and subjected to SDS-polyacrylamide gel electrophoresis (SDS-PAGE). The respective hair follicles in telogen and anagen were distinguished by observing the tissue section under a microscope, and the criterion shown in FIG. 1 was applied for judgment.\nPromoting activity on hair growth of the aforementioned polypeptide H1 and oligopeptide ssb7 was evaluated. C57BL/6 mice are known to have sustained telogen for about 50 days from the 45-day after birth to around the 95-day, and the hair cycle of the animal is easily judged based on the skin color changes, i.e., from pink in telogen to gray or black in anagen. […] The polypeptide H1 solution (0.8 mg/ml) or the oligopeptide ssb7 solution (0.8 mg/ml) prepared above was subcutaneously injected 5 times in the amount of 0.1 ml at intervals of 24 hours, and Hacl-1 in the hair follicles was measured with time according to the method of Example 1."}, "[2]": {"test_system": "Hacl-1 in the cultures (mouse beard)", "assay": "Induction of Hacl-1 expression in cultured mouse beard", "assay_type": "cell-based, mice", "conditions": "50 μg/ml, cultivation for 5 days; the control showed only slight expression", "method": "as §1\nThe beard on the both sides of the mice used in Example 2 was collected and cultured by the method described in Development, 105, pp. 271-277, 1989. The beard from one side was used as a control, and that from the other side was treated with the aforementioned oligopeptide ssb7 (50 μg/ml). After cultivation for 5 days, Hacl-1 in the cultures was determined according to the method of Example 1."}}, "note": "Where no end group is shown, it is not given here.", "data": [{"substance": "ssb7: S-S bridged oligopeptide obtained by crosslinking pep7 (Ser-Ile-Glu-Gln-Ser-Cys-Asp-Gln-Asp-Glu) with BMH (SIEQSCDQDE; not fully specified; printed as Ser-Ile-Glu-Gln-Ser-Cys-Asp-Gln-Asp-Glu; also: two chains crosslinked through Cys6 by BMH (bismaleimidohexane))", "values": [{"measurement": "induction of anagen of the hair follicles", "setting": "[1]; 20-day, judged from Hacl-1 expression", "result": "induction of anagen"}, {"measurement": "Hacl-1 band in hair follicle samples (Western Blotting with antiserum against Hacl-1)", "setting": "[1]; samples at 20-day", "result": "clear band of Hacl-1 was observed"}, {"measurement": "expression of Hacl-1 in cultured beard", "setting": "[2]", "result": "expression of Hacl-1 was observed"}]}]}
